Tests used:
ANT [1] = target: T1, ANT (Rattus norvegicus, UniProt Q05962); experiment: Single channel recordings in planar lipid bilayers; format: biochemical
T1 construct: from tissue
Description: FIG. 3 presents electrophysiological properties of Vpr52-96 and ANT in planar lipid bilayers. Current fluctuations of Vpr52-96 (80 nM, +150 mV), Vpr52-96(0.4 nM, +100 mV), ANT (1 nM, +110 mV) and Vpr52-96+ANT (0.4:1 nM, +115 mV) and associated histograms (right) of conductance levels are shown.
Current fluctuations of Vpr52-96 (80 nM, +150 mV), Vpr52-96 (0.4 nM, +100 mV), ANT (1 nM, +110 mV) and Vpr52-96+ANT (0.4:1 nM, 115 mV) after incorporation into synthetic membranes. Single channel recordings were performed using the “Tip-Dip” technique. The recordings shown are representative for at least three independent determinations.
B. Statistical analysis of conductances obtained in A. Results were expressed as current distributions at different voltages. Conductances (γ; in picosiemens, pS) are calculated by division of current by voltage.

ANT-proteoliposomes = target: T2, ANT-proteoliposomes (Rattus norvegicus, UniProt Q05962); experiment: FITC-labeled Vpr52-96 binding onto ANT-liposomes and plain liposomes
T2 construct: ANT is purified from rat heart and reconstituted in liposomes; from tissue; host or cells: rat heart (ANT)
T2 sequence (Q05962 1-298): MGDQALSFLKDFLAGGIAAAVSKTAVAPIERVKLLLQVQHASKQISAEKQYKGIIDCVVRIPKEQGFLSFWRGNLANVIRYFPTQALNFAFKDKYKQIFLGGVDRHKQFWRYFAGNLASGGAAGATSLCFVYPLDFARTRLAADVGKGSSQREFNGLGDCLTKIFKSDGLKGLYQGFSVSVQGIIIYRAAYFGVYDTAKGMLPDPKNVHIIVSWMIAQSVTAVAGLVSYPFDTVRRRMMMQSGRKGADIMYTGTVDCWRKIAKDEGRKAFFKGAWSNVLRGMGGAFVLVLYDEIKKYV
Description: A. Dose-response curve of FITC-labeled Vpr52-96 binding onto ANT-liposomes and plain liposomes.
B. Binding of FITC-Vpr52-96 (2 μM) to plain liposomes, ANT-proteoliposomes, in the presence or absence of BA (50 μM).

purified mitochondria [2] = experiment: Respirometry of purified mitochondria, respiratory control; format: biochemical; settings: 1 μM peptide, 10 min
Description: A. Oxygen consumption curves after addition of the indicated agents. Trace a: control mitochondria (no pretreatment). Trace b: mitochondria pretreated for 10 min with 1 μM Vpr52-96. Numbers along the traces are nmol of O2 consumed min^−1 mg^31 1 protein.
B. Respiratory control (RC) values calculated by dividing oxygen consumption in the presence of CCCP by that measured with oligomycin (determined as in A), 10 min after addition of 1 μM of Vpr-derived peptides (mean values of 3 determinations).

ANT [3] = target: T1, ANT; settings: surface plasmon resonance, Jacotot et al. 2000; cited from earlier work
isolated mitochondria = experiment: Electron microscopy of isolated mitochondria (matrix swelling); format: biochemical; settings: 3 μM Vpr52-96, 5 or 15 min
Text: C. Ultrastructural effects of Vpr on isolated mitochondria.

purified mitochondria [4] = experiment: FITC-Vpr52-96 binding to purified mitochondria; settings: 0.5 μM FITC-Vpr52-96
Description: Mitochondria were left unstained (insert in Co.) or exposed to the ΔΨm-insensitive mitochondrial dye MitoTracker® Green (75 nM), alone (MTG) or with 0.5 μM of FITC-Vpr52-96; green fluorescence), in combination with the ΔΨm-sensitive mitochondrial dye MitoTracker® Red (CMXRos; red Fluorescence) followed by cytofluorometric two-color analysis. Numbers indicate the percentage of mitochondria in each quadrant.
Mitochondria were incubated with the indicated inhibitors, and then exposed for 30 min at RT with 5 μM biotinylated Vpr52-96. Mitochondria were lysed either after incubation with biotinylated Vpr52-96 (upper panel) or lysed before (lower panel) with Tris/HCl as described in materials and methods. Biotinylated Vpr52-96 complexed with its mitochondrial ligands was retained on avidin-agarose and subjected to immunoblot detection of ANT.

purified mitochondria [5] = experiment: Inner versus outer mitochondrial membrane permeabilization (NADH oxidation, cytochrome c oxidation); format: biochemical
Description: A. Respirometry performed after addition of NADH and Vpr52-96 (1 μM). Numbers along the traces are nmol of O2 consumed min^−1 mg^−1 protein.
B. Kinetics of Vpr52-96 induced inner membrane permeabilization to NADH and outer membrane permeabilization to reduced cytochrome c. Oxygen consumption was determined in the presence of 2 mM NADH (full squares) as in A (traces C-D) and cytochrome c (15 μM) oxidation (open circles) was spectrofluorometrically measured, as described Rustin et al., 1994). The 100% value of cytochrome c oxidation was determined by addition of 2.5 mM laurylmaltoside.
Oxygen consumption of purified mitochondria was measured as in FIG. 5 after addition of succinate+CCCP or NADH, as indicated.

ANT [6] = target: T1, ANT; format: binding; settings: purified detergent-solubilized ANT
Text: A Plasma surface resonance sensorgrams of the interaction of ANT with Vpr52-96, Vpr52-96[R73A, 80A] or an irrelevant control (Co).
B. Langmuir isotherm determined at different concentrations of ANT on sensorgrams corrected by substraction of the blank (sensorgrams obtained with Vpr52-96[R73A, 80A]).

## CC[C@H](C)[C@H](NC(=O)[C@H](C)NC(=O)[C@H](CCC(=O)O)NC(=O)[C@@H](NC(=O)CNC(=O)[C@H](C)NC(=O)[C@H](Cc1c[nH]c2ccccc12)NC(=O)[C@@H](NC(=O)[C@@H](N)CC(=O)O)[C@@H](C)O)C(C)C)C(=O)N[C@H](C(=O)N[C@@H](CCCNC(=N)N)C(=O)N[C@H](C(=O)N[C@@H](CC(C)C)C(=O)N[C@@H](CCC(N)=O)C(=O)N[C@@H](CCC(N)=O)C(=O)N[C@@H](CC(C)C)C(=O)N[C@@H](CC(C)C)C(=O)N[C@@H](Cc1ccccc1)C(=O)N[C@H](C(=O)N[C@@H](Cc1c[nH]cn1)C(=O)N[C@@H](Cc1ccccc1)C(=O)N[C@@H](CCCNC(=N)N)C(=O)N[C@H](C(=O)NCC(=O)N[C@@H](CS)C(=O)N[C@@H](CCCNC(=N)N)C(=O)N[C@@H](Cc1c[nH]cn1)C(=O)N[C@@H](CO)C(=O)N[C@@H](CCCNC(=N)N)C(=O)N[C@H](C(=O)NCC(=O)N[C@H](C(=O)N[C@H](C(=O)N[C@@H](CCCNC(=N)N)C(=O)N[C@@H](CCC(N)=O)C(=O)N[C@@H](CCCNC(=N)N)C(=O)N[C@@H](CCCNC(=N)N)C(=O)N[C@@H](C)C(=O)N[C@@H](CCCNC(=N)N)C(=O)N[C@@H](CC(N)=O)C(=O)NCC(=O)N[C@@H](C)C(=O)N[C@@H](CO)C(=O)N[C@@H](CCCNC(=N)N)C(=O)N[C@@H](CO)C(=O)O)[C@@H](C)O)C(C)C)[C@@H](C)CC)[C@@H](C)CC)[C@@H](C)CC)[C@@H](C)CC)[C@@H](C)CC [Vpr52-96]
ANT [1]; Vpr52-96+ANT 0.4:1 nM
  conductance of channels formed by ANT and Vpr52-96: 190±2 pS
ANT [1]; as restated in Example 4
  mean conductance of Vpr52-96-ANT channels without any further addition: 190±2
ANT [1]; high doses (80 nM), no ANT
  conductance of channels formed by Vpr52-96 alone: 55±2 pS
ANT [1]; low doses (<1 nM)
  channel formation in planar lipid bilayers: incapable of forming channels, unless ANT was present
ANT-proteoliposomes
  Vpr52-96 binding to membranes, ANT liposomes versus protein-free liposomes: greatly facilitated in liposomes in which ANT has been reconstituted as compared to protein-free liposomes
Purified mitochondria [2]
  effect on respiratory control (RC): exhibited a gross deficiency in respiratory control (RC)
Purified mitochondria [2]; 5.3 in control mitochondria
  respiratory control (RC) value: 1.1
ANT [3]
  affinity of Vpr C-terminus for purified ANT: high affinity in the nanomolar range
Isolated mitochondria
  ultrastructural effect on mitochondria: exhibited matrix swelling before OM rupture became apparent
Purified mitochondria [4]
  Vpr52-96 binding to mitochondria relative to ΔΨm loss: binds mitochondria before inducing ΔΨm loss
Purified mitochondria [5]
  order of inner and outer MMP: causes inner MMP well before OM becomes permeable to exogenous cytochrome c
Purified mitochondria [5]; Vpr52-96 1 μM, 2 mM NADH
  time to maximal NADH oxidation: 10 min
ANT [6]
  binding of ANT to immobilized peptide (sensorgram): exhibits an increase of binding as a function of time and a positive signal at the start of the dissociation phase
